Experimental data taken from publication PMC8246850, “Functional selective FPR1 signaling in favor of an activation of the neutrophil superoxide generating NOX2 complex” (Journal of Leukocyte Biology, 2020).

Target: T1, FPR1 (Homo sapiens, UniProt P21462)
T1 sequence (P21462 1-350): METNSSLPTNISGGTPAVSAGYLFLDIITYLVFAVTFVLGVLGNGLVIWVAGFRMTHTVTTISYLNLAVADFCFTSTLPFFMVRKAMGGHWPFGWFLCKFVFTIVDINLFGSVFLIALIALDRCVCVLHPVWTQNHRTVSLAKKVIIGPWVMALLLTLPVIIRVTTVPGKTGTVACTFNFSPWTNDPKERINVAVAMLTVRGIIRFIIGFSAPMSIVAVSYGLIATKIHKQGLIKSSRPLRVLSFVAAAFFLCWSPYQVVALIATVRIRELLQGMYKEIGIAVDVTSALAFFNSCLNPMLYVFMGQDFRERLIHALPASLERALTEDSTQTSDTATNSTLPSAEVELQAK
Experiment: human neutrophil NADPH-oxidase (superoxide) and Ca2+ assays with FPR1/FPR2 antagonists and cross-desensitization; weak β-arrestin recruitment in FPR1 CHO cells
Assay type: cell-based

Substance RE-04-001 has an EC50 of ~1 nM.
